Experimental data from patent US10154667B2, “Broadleaf crop control with 6-arylpicoline carboxylic acids, 2-arylpyrimidine carboxylic acids, or salts or esters thereof” (Dow AgroSciences LLC, priority 2013, dated 2018).
Where two headings read alike, the source gives them in different places.

Key:
Assay type in all cases: in vivo, Glycine max
[1] = system: Maverick GLXMA (conventional soybean); assay: Greenhouse evaluation of broadleaf volunteer crop control, Maverick soybean; settings: for pest or weed control at 1.1 g/ha / pest or weed control at 2.2 g/ha / pest or weed control at 4.4 g/ha / pest or weed control at 8.75 g/ha / pest or weed control at 17.5 g/ha: Glycine max, 504 h, read-out: Average Percent Crop Control after Treatment, Maverick GLXMA
Protocol: (§1) Test plants were grown in METRO-MIX® 360 (SunGro Horticulture, Bellevue, Wash.) in 132.7 square centimeters (cm^2) plastic pots for 7-21 days in a greenhouse with an approximate 15 hour (h) photoperiod which was maintained at about 23-29° C. during the day and 22-28° C. during the night. Plants were grown to the 2 to 3 leaf stage prior to applications. Both conventional soybean crops varieties, Maverick and Resnick, and herbicide resistant (HT) varieties AAD12, AAD1, and ROUNDUP® ready soybean crops were treated.
(§2) A weighed amount, determined by the highest rate to be tested, of each test compound was placed in a 25 milliliter (mL) glass vial and was dissolved in 4 mL of a 97:3 v/v (volume/volume) mixture of acetone and dimethyl sulfoxide (DMSO), which will be referred to as General Purpose Solvent (GPS), to obtain concentrated stock solutions. […] The concentrated stock solutions obtained were diluted with 20 mL of an aqueous mixture containing water, GPS, isopropyl alcohol, ATPLUS® 411F crop oil concentrate, and TRITON® X-155 surfactant in a 46:42:12:1.0:0.02 v/v ratio to obtain spray solutions containing the highest application rates. Additional application rates were obtained by serial dilution of 12 mL of the high rate solution into a solution containing 2 mL of 97:3 v/v (volume/volume) mixture of acetone and dimethyl sulfoxide (DMSO) and 10 mL of an aqueous mixture containing water, GPS, isopropyl alcohol, ATPLUS® 411F crop oil concentrate, and TRITON® X-155 surfactant in a 46:42:12:1.0:0.02 v/v ratio to obtain 1/2X, 1/4X, 1/8X and 1/16X rates of the high rate (X). Compound requirements are based upon a 12 mL application volume at a rate of 187 L/ha. Formulated compounds were applied to the plant material with an overhead Mandel track sprayer equipped with 8002E nozzles calibrated to deliver 187 L/ha over an application area of 0.503 square meters (m^2) at a spray height of 18 inches (43 cm) above the average plant canopy height. Control plants were sprayed in the same manner with the solvent blank. The treated plants and control plants were placed in a greenhouse as described above and watered by sub-irrigation to prevent wash-off of the test compounds. After 21 days, the condition of the test plants as compared with that of the control plants was determined visually and scored on a scale of 0 to 100 percent where 0 corresponds to no injury and 100 corresponds to complete kill, and results are listed in Table 1 along with active ingredients and their respective formulations. Each score in Table 1 represents an average obtained from results of three representative experiments.
(§3) Additional formulations with different 6-arylpicolinates were tested in the greenhouse on Maverick and RoundUp-ready soybean crops using the procedure described above. Each score in Table 2 represents an average obtained from results of three representative experiments.

[2] = system: RoundUp Ready GLXMA (HT variety soybean); assay: Greenhouse evaluation of broadleaf volunteer crop control, RoundUp ready soybean; settings: for pest or weed control at 1.1 g/ha / pest or weed control at 2.2 g/ha / pest or weed control at 4.4 g/ha / pest or weed control at 8.75 g/ha / pest or weed control at 17.5 g/ha: Glycine max, 504 h, read-out: Average Percent Crop Control after Treatment, RoundUp Ready GLXMA
Protocol: as §1, §2, §3

[3] = system: ROUNDUP READY soybeans (GLXMA); assay: Field evaluation with various herbicides, 46 days after treatment; settings: for % Crop Control: 46 Days After Treatment
From the text: (§4) The average percent visual control of ROUNDUP READY® soybeans (GLXMA) 46 days after treatment with various herbicides with standard formulation in comparison with compound of Formula (IV) at specified rates are provided in Table 6 below. The data was the result of conducting factorial replicated field trials (4 trials) by applying the compositions at a spray pressure of 300 kPa and a spray volume of 200 L/ha. The treated plots and control plots were visually rated blind at the specified dates after application. Ratings were based on a scale of 0-100%, as discussed above, wherein 0% indicates complete growth of the undesired vegetation and 100% indicates complete prevention/eradication of the undesired vegetation.

[4] = system: ROUNDUP READY soybeans (GLXMA); assay: Field evaluation with various herbicides, 30 days after treatment; settings: for % Crop Control: 30 Days After Treatment
From the text: as §4, with “The” for “The average percent visual control of ROUNDUP READY® soybeans (GLXMA) 46 days after treatment with various herbicides with standard formulation in comparison with compound of Formula (IV) at specified rates are provided in Table 6 below. The”, “(3” for “(4”

[5] = 1.1 g ae/ha, greenhouse, 2 to 3 leaf stage, after 21 days, 0 no injury, 100 complete kill
[6] = 2.2 g ae/ha, greenhouse, 2 to 3 leaf stage, after 21 days, 0 no injury, 100 complete kill
[7] = 4.4 g ae/ha, greenhouse, 2 to 3 leaf stage, after 21 days, 0 no injury, 100 complete kill
[8] = 8.75 g ae/ha, greenhouse, 2 to 3 leaf stage, after 21 days, 0 no injury, 100 complete kill
[9] = 17.5 g ae/ha, greenhouse, 2 to 3 leaf stage, after 21 days, 0 no injury, 100 complete kill

Structure (SMILES) | pest or weed control at 1.1 g/ha [1, 5] [%] | pest or weed control at 2.2 g/ha [1, 6] [%] | pest or weed control at 4.4 g/ha [1, 7] [%] | pest or weed control at 8.75 g/ha [1, 8] [%] | pest or weed control at 17.5 g/ha [1, 9] [%] | pest or weed control at 1.1 g/ha [2, 5] [%] | pest or weed control at 2.2 g/ha [2, 6] [%] | pest or weed control at 4.4 g/ha [2, 7] [%] | pest or weed control at 8.75 g/ha [2, 8] [%] | pest or weed control at 17.5 g/ha [2, 9] [%] | further results
COc1c(Cl)ccc(-c2nc(C(=O)OCc3ccccc3)c(Cl)c(N)c2F)c1F |  |  |  |  |  |  |  |  |  |  | pest or weed control at 1.1 g/ha [1]: 100%; pest or weed control at 2.2 g/ha [1]: 100%; pest or weed control at 4.4 g/ha [1]: 100%; pest or weed control at 8.75 g/ha [1]: 100%; pest or weed control at 17.5 g/ha [1]: 100%; pest or weed control at 1.1 g/ha [2]: 100%; pest or weed control at 2.2 g/ha [2]: 100%; pest or weed control at 4.4 g/ha [2]: 100%; pest or weed control at 8.75 g/ha [2]: 100%; pest or weed control at 17.5 g/ha [2]: 100%
Nc1cc(-c2ccc(Cl)cc2F)nc(C(=O)O)c1Cl | 100 | 100 | 100 | 100 | 100 | 100 | 100 | 100 | 100 | 100 | 
Cc1c(Cl)ccc(-c2cc(N)c(Cl)c(C(=O)O)n2)c1F | 53 | 82 | 99 | 100 | 100 | 57 | 80 | 98 | 100 | 100 | 
Cc1ccc(-c2cc(N)c(Cl)c(C(=O)O)n2)cc1 | 100 | 100 | 100 | 100 | 100 | 90 | 100 | 100 | 100 | 100 | 
Nc1c(F)c(-c2ccc3c(c2)OCO3)nc(C(=O)O)c1Cl | 27 | 42 | 58 | 95 | 100 | 32 | 45 | 73 | 92 | 98 | 
COC(=O)c1nc(-c2ccc(Cl)cc2OC)cc(N)c1Cl | 98 | 100 | 100 | 100 | 100 | 95 | 99 | 100 | 100 | 100 | 
CNC.O=C(O)COc1ccc(Cl)cc1Cl [2,4-D-dma] |  |  |  |  |  |  |  |  |  |  | % Crop Control ([3]; 1300 g ai/Ha): 97.3%
CC(O)CN(CC(C)O)CC(C)O.Nc1cc(Cl)nc(C(=O)O)c1Cl (stereo not shown) [Aminopyralid TIPA] |  |  |  |  |  |  |  |  |  |  | % Crop Control ([4]; 1.25 g ai/Ha): 60%
CCNc1nc(Cl)nc(NC(C)C)n1 [Atrazine] |  |  |  |  |  |  |  |  |  |  | % Crop Control ([4]; 1500 g ai/Ha + 1% J'Oil): 86.7%; % Crop Control ([4]; 1500 g ai/Ha): 75%
O=C(O)c1nc(Cl)ccc1Cl [Clopyralid] |  |  |  |  |  |  |  |  |  |  | % Crop Control ([3]; 54 g ai/Ha): 93.8%
C#CCN1C(=O)COc2cc(F)c(N3C(=O)C4=C(CCCC4)C3=O)cc21 [Flumioxazin] |  |  |  |  |  |  |  |  |  |  | % Crop Control ([3]; 25 g ai/Ha): 0%
Nc1c(Cl)c(F)nc(OCC(=O)O)c1Cl [Fluroxypyr] |  |  |  |  |  |  |  |  |  |  | % Crop Control ([3]; 200 g ai/Ha): 100%
COc1c(Cl)ccc(-c2nc(C(=O)O)c(Cl)c(N)c2F)c1F [Formula (III)] |  |  |  |  |  |  |  |  |  |  | % Crop Control ([4]; 18 g ai/Ha): 100%; herbicidal activity in genetically engineered crops as compared to other commercially known herbicides ([4]; RoundUp Ready soybeans): comparable or superior
COc1c(Cl)ccc(-c2cc(N)c(Cl)c(C(=O)O)n2)c1F [Formula (IV)] |  |  |  |  |  |  |  |  |  |  | % Crop Control ([3]; 17 g ai/Ha): 93%; herbicidal activity in genetically engineered crops as compared to other commercially known herbicides ([3]; RoundUp Ready soybeans): comparable or superior
CCOc1cc(Oc2ccc(C(F)(F)F)cc2Cl)ccc1[N+](=O)[O-] [Oxyfluorfen] |  |  |  |  |  |  |  |  |  |  | % Crop Control ([4]; 72 g ai/Ha): 16.7%
COc1cnc(OC)n2nc(NS(=O)(=O)c3c(OCC(F)F)cccc3C(F)(F)F)nc12 [Penoxsulam] |  |  |  |  |  |  |  |  |  |  | % Crop Control ([4]; 18 g ai/Ha): 87.3%
COc1c(Cl)ccc(-c2nc(C(=O)O)c(Cl)c(N)c2F)c1F [drawing 13] |  |  |  |  |  | 100 |  |  |  |  | Average Percent Crop Control after Treatment, Maverick GLXMA [1, 5]: 100%; Average Percent Crop Control after Treatment, Maverick GLXMA [1, 6]: 100%; Average Percent Crop Control after Treatment, Maverick GLXMA [1, 7]: 100%; Average Percent Crop Control after Treatment, Maverick GLXMA [1, 8]: 100%; Average Percent Crop Control after Treatment, Maverick GLXMA [1, 9]: 100%; Average Percent Crop Control after Treatment, RoundUp Ready GLXMA [2, 6]: 100%; Average Percent Crop Control after Treatment, RoundUp Ready GLXMA [2, 7]: 100%; Average Percent Crop Control after Treatment, RoundUp Ready GLXMA [2, 8]: 100%; Average Percent Crop Control after Treatment, RoundUp Ready GLXMA [2, 9]: 100%
COc1c(Cl)ccc(-c2cc(N)c(Cl)c(C(=O)O)n2)c1F [drawing 15] | 100 | 100 | 100 | 100 | 100 | 100 | 100 | 100 | 100 | 100 | 
COc1ncc(F)c2nc(S(=O)(=O)Nc3c(F)cccc3F)nn12 [florasulam] |  |  |  |  |  |  |  |  |  |  | % Crop Control ([4]; 5 g ai/Ha + 1% J'Oil): 63.3%
